The subject of data set [1] is GFAP expression. Description: Traumatic brain injury (TBI) in mice, Western blot analysis for GFAP. The class given is in vivo. The conditions noted are these: summary statement. How it is done: Animals and traumatic brain injury (TBI): TBI was performed with a controlled closed skull injury model as described in […] al. 2012 (J. Neurotrauma 30, 55-66). Following the method described therein, a pneumatic impact device was used to generate a moderate TBI leaving the skull and dura matter intact. To achieve this, C57BL/6 mice were anesthetized with isoflurane (3% induction, 1% maintenance) in 100% oxygen. A body temperature of 37° C. was maintained using a temperature-controlled heated surgical table. A small midline incision was made on the scalp using aseptic surgical techniques. A 5 mm stainless steel disc was positioned on the skull and fixed using superglue on the right parietal bone between bregma and lamda over the somatosensory cortex. The mouse was then positioned on a stage directly under the pneumatic impact tip. […] Scalp incisions were closed using 4-0 nylon braided suture and antibiotic ointment applied to the incision. Mice were placed in a Thermo-Intensive Care Unit (Braintree Scientific model FV-1; 37° C.; 27% 02) and monitored until fully awake and moving freely. […] Western Blot Analysis for GFAP: At selected survival times, mice were anesthetized under isoflurane and sacrificed. The brain was removed and placed on ice for dissection into impacted and non-impacted brain hemispheres. […] The homogenate was transferred to a 2 mL tube and centrifuged at 1000 g for 10 minutes at 4° C. and the supernatant was collected and analyzed. Protein concentration was determined by the BCA assay using a 1:50 dilution. 100 μg of protein was removed as an aliquot for each sample and Laemmli buffer containing β-mercaptoethanol added and the sample placed in a heat block for 3 minutes at 95° C. Samples were loaded on a 12% gel and ran at 80 V for 20 minutes followed by 40 minutes at 130 V. Samples were transferred to nitrocellulose membrane at 100 V for 1 hour. The membrane was blocked with 5% milk in TBS-T for 30 minutes. GFAP (1:1000-Imgenex IMG-5083-A) was added and placed at 4° C. overnight. The membrane was washed with TBS-T three times for 10 minutes. Secondary antibody for GFAP (Donkey anti-rabbit HRP conjugated (ImmunoJackson Laboratories; 711-035-152; 1:20000) was applied at room temperature for 1 hour. The membranes were washed with TBS-T for 15 minutes (3 times) and developed using the Western Lightning Plus-ECL kit (PerkinElmer, Inc.) following manufacturer's directions.

For data set [2], the system named is photothrombosis-induced stroke infarctions. Description: Photothrombosis-induced stroke in mice, TTC-stained brain infarction size. In kind it is in vivo. How it is done: Photothrombosis-induced Stroke: Photothrombosis was performed as described in Zheng et al 2010 (PloS One 5 (12): e14401). In brief, Rose Bengal is a fluorescent dye that when injected into the vasculature and excited, generates singlet oxygen that damages the endothelial wall and induces a local thrombosis (clot). Using this technique, mice were given a 0.1 mL tail-vein injection of sterilized Rose Bengal (RB, Sigma, U.S.A.) in artificial cerebral spinal fluid (aCSF). The RB concentration was 20 mg/mL. A cortical region was centered in the imaging field and illuminated with a green laser (543 nm, 5 mW) using a 0.8-NA 40× water-immersion objective (Nikon, Tokyo). The clot formation was monitored in real time until the targeted vessel or downstream capillaries were firmly occluded. Stable clots were subsequently identified by a non-fluorescent vessel segmentation ending with highly fluorescent regions. […] Treatments, MRS4322 (0.16 mg/kg; 0.5 μmol/kg) or MRS2365 (0.24 mg/kg; 0.5 μmol/kg) were introduced via intraperitoneal injections (i.p.). […] Animals and Photothrombosis-induced Stroke: Stroke was performed as described in Zheng et al 2010 (PloS One 5 (12): e14401). Female C57Bl/6 mice (4-6 months) were used in this study. From the methods of this manuscript: Mice were anesthetized at 3% isoflurane with 100% oxygen and subsequently maintained at 1% isoflurane through a nosecone. Depth of anesthesia was monitored and regulated according to vital signs, pinch withdrawal and eye blinks. Body temperature was maintained at 37° C. by a feedback-controlled heating pad (Gaymar T/Pump). Vital signs including oxygen saturation, respiratory rate, and heart rate were continuously monitored by using the MouseOx system (STARR Life Sciences). The hair on each mouse's head was trimmed and a small incision was made in the scalp to expose the skull. A custom-made stainless steel plate was glued to the skull with VetBond Tissue Adhesive (3M, St Paul, MN). A cranial thinned-skull imaging window was created over the right primary somatosensory cortex (˜1.5 mm posterior to Bregma and 2 mm lateral from midline) depending on the experiment. In brief, a large region of the skull was first thinned with the electric drill and then further thinned with a surgical blade. The final thickness of the thinned skull was approximately 50 μm. After the cranial imaging window was created, mice were transferred to microscope stage and used for photothrombosis or imaging experiments. For the repeat imaging experiments, the plate was carefully detached from the skull and the scalp was sutured (Ethicon 6-0 sild suture). After each experiment, the mice were either returned to cages until the next timepoint or sacrificed. All procedures were approved by the Institutional Animal Care and Use Committee (IACUC) at University of Texas Health Science Center at San Antonio. Thirty minutes following stroke or sham (uninjured), mice were treated with either vehicle (saline) or drugs (MRS4322, MRS2365, MRS5698 or Cl-IBMECA). Post photothrombotic infarction evaluation. The size of cerebral infarcts was evaluated using 2,3,5-Triphenyltetrazolium chloride (TTC) staining as described in Zheng et al 2010 (PloS One 5 (12): e14401). In brief, RB-induced lesions in brain slices were stained with TTC. TTC is a colorless dye that stains healthy brain tissue red when reduced by the mitochondrial enzyme succinyl dehydrogenase (Bederson J B et al., 1986). The absence of staining in necrotic tissue is then used to define the area of a brain infarction. Mice were sacrificed by cervical dislocation, their brains removed and then placed in ice cold HBSS for 3 minutes. […] The sections were fixed in 10% buffered formaldehyde solution overnight at 4° C. Slices were imaged on a flatbed scanner (HP scanjet 8300) for analysis of the lesion size at 1200 dpi. Photothrombosis-induced Stroke: Photothrombosis was performed as described in Zheng et al. 2010 (PloS One 5 (12): e14401). […]

Data set [3] has as its target T1, Human A3 (Homo sapiens, UniProt P0DMS8).
T1 sequence (P0DMS8 1-318): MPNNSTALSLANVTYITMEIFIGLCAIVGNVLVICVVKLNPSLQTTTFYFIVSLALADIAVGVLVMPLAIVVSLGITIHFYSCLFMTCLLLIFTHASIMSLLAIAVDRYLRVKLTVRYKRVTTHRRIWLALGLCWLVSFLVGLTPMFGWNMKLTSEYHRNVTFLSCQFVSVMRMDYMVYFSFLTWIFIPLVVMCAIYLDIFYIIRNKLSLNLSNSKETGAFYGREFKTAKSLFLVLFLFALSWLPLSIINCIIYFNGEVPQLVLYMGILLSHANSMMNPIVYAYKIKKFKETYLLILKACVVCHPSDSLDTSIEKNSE
The following applies: J. Med. Chem. 2002 45:4471-4484 (Gao et al.); cited from earlier work.

The conditions of data set [4]: mouse plasma and tissue; Tosh et al. Purinergic Signalling (2015) 11:371-387; cited from earlier work.

As for `CNC(=O)[C@H]1O[C@@H](n2cnc3c(NCc4cccc(I)c4)nc(Cl)nc32)[C@H](O)[C@@H]1O` [Cl-IB-MECA, 2-Chloro-N^6-(3-iodobenzyl)-adenosine-5′-N-methyluronamide, reference compound], the “efficacy in the mouse TBI model” value in data set [1] was “weakly active”.

Take `CCCOC(=O)c1c(-c2ccccc2)nc(CC)c(C(=O)SCC)c1CCC` [MRS1523, reference compound]: in data set [2] (MRS1523 2 mg/kg i.p. at 0 and 2 hours), the “effect of antagonist on neuroprotection of MRS4322 and MRS2365 treatments after stroke” value is “inhibits neuroprotection”.

As to `Nc1nc(Cl)nc2c1ncn2[C@H]1[C@H](O)[C@H](O)[C@]2(CO)C[C@H]12` [MRS1873], in data set [3], the EC50 (as a rule, the concentration needed to bring the measured effect to its halfway point) was 803 nM. In data set [2] (Example 7: mice, 100 ul of 100 uM i.p. within 30 minutes of clot formation, 24 hours after stroke, versus vehicle), the “size of the brain infarction (TTC staining)” value was “significantly reduced”.

For the compound `CNC(=O)[C@@]12C[C@@H]1[C@@H](n1cnc3c(NCc4cccc(Cl)c4)nc(C#Cc4ccc(F)c(F)c4)nc31)[C@H](O)[C@@H]2O` [MRS5698, reference compound], in data set [4], the “protein binding reported in the literature” value is on record as 99.88%. The “size of brain infarctions in mice pretreated with the A3 receptor antagonist MRS1523” value in data set [2] (MRS1523 2 mg/kg i.p. at 0 and 2 hours, treatment within 30 minutes of clot formation, 24 hours) is reported as “not reduced”.

The values are drawn from US12390483B2, “Compounds and methods for treating neurological and cardiovascular conditions” (Astrocyte Pharmaceuticals, Inc., priority 2016, dated 2025).
